# Data from US20110070232A1, “Combination Therapy with an Antitumor Alkaloid” (Pharma Mar, S.A., priority 2008, published 2011).
# Read-outs that look alike come from different tables or passages of the source.
# Test system: MRI-H-254 tumors
# Type: in vivo, mice
# Method: Female athymic nude mice (Harlan Sprague Dawley, Madison, Wis.) were utilized for all experiments. Animals were housed in ventilated rack caging with food and water ad libitum. The mice were acclimated for at least 5 days prior to tumor implantation with tumor fragments. The Vehicle Control group contained 11 mice, groups 2-6 contained 8 mice/group, and the rest of groups contained 9 mice/group.
# This cell line was grown and implanted to the animals as described in Example 11.
# Tumor measurements were determined as disclosed in Example 4. […] Treatments were initiated on DPI 17.
# PM00104 was provided in the form of vials of lyophilized PM00104 powder which was reconstituted with water for injection.
# Tumor size measurements were recorded twice weekly from the treatment initiation until the termination of the study.
# Mean, standard deviation and standard error of the mean were determined for tumor volume for all animal groups at all assessments. Student's t test was performed on tumor volumes at each measurement day, including at the end of the study, to determine whether there were any statistically significant differences between combination treatment groups and single monotherapy treatment groups.
# The definition and criteria for the evaluation of potentiation and the degree of additivity for the combination therapy were the same as those disclose in Example 4.
# [1] = PM00104 0.45 IV, doxorubicin 6 IP, paclitaxel 12.5 IP mg/kg/day (G3, G9, G10)
# [2] = PM00104 0.90 IV, doxorubicin 6 IP, paclitaxel 12.5 IP mg/kg/day (G2, G5, G6, G7, G8)
structure (smiles),measurement,setting,value
COc1c(C)cc2c(c1O)[C@@H]1[C@@H]3Cc4c(OC(C)=O)c(C)c5c(c4[C@H](CNC(=O)/C=C/c4cccc(C(F)(F)F)c4)N3[C@@H](O)[C@H](C2)N1C)OCO5 [PM00104],% T/C on day 35,[1],38.4%
same,% T/C on day 39,[1],31.8%
same,% T/C on day 47,[1],21.5%
same,% T/C on day 17,[2],98.5%
same,% T/C on day 20,[2],95.6%
same,% T/C on day 24,[2],56.9%
same,% T/C on day 27,[2],46.4%
same,% T/C on day 32,[2],31.2%
same,% T/C on day 35,[2],22.6%
same,% T/C on day 39,[2],14.5%
same,% T/C on day 47,[2],9.5%
same,% Inhibition,"day 14, PM00104 0.23, doxorubicin 6, paclitaxel 12.5 mg/kg/day",2.5%
same,% Inhibition,"day 14, PM00104 0.45, doxorubicin 6, paclitaxel 12.5 mg/kg/day",0.0%
same,% Inhibition,"day 14, PM00104 0.90, paclitaxel 12.5 mg/kg/day",1.5%
same,% Inhibition,"day 14, PM00104 0.9 and doxorubicin 6 mg/kg/day",1.5%
same,% Inhibition,"day 20, PM00104 0.23, doxorubicin 6, paclitaxel 12.5 mg/kg/day",−13.0%
same,% Inhibition,"day 20, PM00104 0.45, doxorubicin 6, paclitaxel 12.5 mg/kg/day",−9.2%
same,% Inhibition,"day 20, PM00104 0.90, paclitaxel 12.5 mg/kg/day",4.4%
same,% Inhibition,"day 20, PM00104 0.9 and doxorubicin 6 mg/kg/day",4.4%
same,% Inhibition,"day 24, PM00104 0.23, doxorubicin 6, paclitaxel 12.5 mg/kg/day",10.1%
same,% Inhibition,"day 24, PM00104 0.45, doxorubicin 6, paclitaxel 12.5 mg/kg/day",8.7%
same,% Inhibition,"day 24, PM00104 0.90, paclitaxel 12.5 mg/kg/day",43.1%
same,% Inhibition,"day 24, PM00104 0.9 and doxorubicin 6 mg/kg/day",43.1%
same,% Inhibition,"day 27, PM00104 0.23, doxorubicin 6, paclitaxel 12.5 mg/kg/day",24.1%
same,% Inhibition,"day 27, PM00104 0.45, doxorubicin 6, paclitaxel 12.5 mg/kg/day",29.0%
same,% Inhibition,"day 27, PM00104 0.90, paclitaxel 12.5 mg/kg/day",53.6%
same,% Inhibition,"day 27, PM00104 0.9 and doxorubicin 6 mg/kg/day",53.6%
same,% Inhibition,"day 32, PM00104 0.23, doxorubicin 6, paclitaxel 12.5 mg/kg/day",27.3%
same,% Inhibition,"day 32, PM00104 0.45, doxorubicin 6, paclitaxel 12.5 mg/kg/day",48.2%
same,% Inhibition,"day 32, PM00104 0.90, paclitaxel 12.5 mg/kg/day",68.8%
same,% Inhibition,"day 32, PM00104 0.9 and doxorubicin 6 mg/kg/day",68.8%
same,% Inhibition,"day 35, PM00104 0.23, doxorubicin 6, paclitaxel 12.5 mg/kg/day",37.6%
same,% Inhibition,"day 35, PM00104 0.45, doxorubicin 6, paclitaxel 12.5 mg/kg/day",61.6%
same,% Inhibition,"day 35, PM00104 0.90, paclitaxel 12.5 mg/kg/day",77.4%
same,% Inhibition,"day 35, PM00104 0.9 and doxorubicin 6 mg/kg/day",77.4%
same,% Inhibition,"day 39, PM00104 0.23, doxorubicin 6, paclitaxel 12.5 mg/kg/day",42.4%
same,% Inhibition,"day 39, PM00104 0.45, doxorubicin 6, paclitaxel 12.5 mg/kg/day",68.2%
same,% Inhibition,"day 39, PM00104 0.90, paclitaxel 12.5 mg/kg/day",85.5%
same,% Inhibition,"day 39, PM00104 0.9 and doxorubicin 6 mg/kg/day",85.5%
same,% Inhibition,"day 47, PM00104 0.23, doxorubicin 6, paclitaxel 12.5 mg/kg/day",33.2%
same,% Inhibition,"day 47, PM00104 0.45, doxorubicin 6, paclitaxel 12.5 mg/kg/day",78.5%
same,% Inhibition,"day 47, PM00104 0.90, paclitaxel 12.5 mg/kg/day",90.5%
same,% Inhibition,"day 47, PM00104 0.9 and doxorubicin 6 mg/kg/day",90.5%
